Results: patent US12187713B2, “Immunomodulators, compositions and methods thereof” (Betta Pharmaceuticals Co., Ltd, priority 2019, dated 2025)

Target: PD-1/PD-L1 (Homo sapiens (Human), UniProt Q9NZQ7)
Test: PD-1/PD-L1 Binding Assay (Alphascreen)
Details: numeric values
Summary of the method: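 PD-1/PD-L1 binding detected by anti-6×His acceptor and streptavidin donor beads after 120 min in the dark at 25 °C. Beforehand, the two proteins were incubated 15 min at 25 °C with inhibitor at 0.015–300 nM (1% DMSO). IC50 comes from a log concentration–response curve.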

Sequence of PD-1/PD-L1 (Q9NZQ7 19-238): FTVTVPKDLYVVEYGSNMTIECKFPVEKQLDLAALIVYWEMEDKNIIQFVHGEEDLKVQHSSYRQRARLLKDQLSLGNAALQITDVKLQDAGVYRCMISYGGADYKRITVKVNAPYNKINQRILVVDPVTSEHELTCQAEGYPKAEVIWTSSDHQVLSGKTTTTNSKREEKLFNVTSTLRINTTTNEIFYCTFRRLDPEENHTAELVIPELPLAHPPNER

IC50 [nM]	SMILES
0.14	Cc1c(-c2nc3cc(CN4CC(C)(C)C4)c(OC(F)F)cc3o2)cccc1-c1cccc(-c2nc3cc(CN4CCC[C@H]4C(=O)O)c(OC(F)F)cc3o2)c1C#N [Example 128, ((2-(2-cyano-3′-(6-(difluoromethoxy)-5-((3,3-dimethylazetidin-1-yl)methyl)benzo[d]oxazol-2-yl)-2′-methyl-[1,1′-biphenyl]-3-yl)-6-(difluoromethoxy)benzo[d]oxazol-5-yl)methyl)-L-proline]
1.7	Cc1c(-c2nc3cc(CN4CCC[C@H]4C(=O)O)c(OC(F)F)cc3o2)cccc1-c1cccc(-c2nc3cc(CN4CC(C)(CO)C4)cc(C#N)c3o2)c1C [Example 129, ((2-(3′-(7-cyano-5-((3-(hydroxymethyl)-3-methylazetidin-1-yl)methyl)benzo[d]oxazol-2-yl)-2,2′-dimethyl-[1,1′-biphenyl]-3-yl)-6-(difluoromethoxy)benzo[d]oxazol-5-yl)methyl)-L-proline]
2	Cc1c(-c2nc3cc(CN4CCC[C@@H]4C(=O)O)c(OC(F)F)cc3o2)cccc1-c1cccc(-c2nc3cc(CN4CC[C@@H](C)C4)cc(C#N)c3o2)c1C [Example 132, ((2-(3′-(7-cyano-5-(((R)-3-methylpyrrolidin-1-yl)methyl)benzo[d]oxazol-2-yl)-2,2′-dimethyl-[1,1′-biphenyl]-3-yl)-6-(difluoromethoxy)benzo[d]oxazol-5-yl)methyl)-D-proline]

Same assay, conditions: range symbols

IC50 [nM]	SMILES
0.1 to 5	Cc1c(-c2nc3cc(CN(C)C)c(OCc4ccc(S(C)(=O)=O)cc4)cc3o2)cccc1-c1cccc(-c2nc3cc(CN4CCC[C@H]4C(=O)O)c(OC(F)F)cc3o2)c1C [Example 126, ((6-(difluoromethoxy)-2-(3′-(5-((dimethylamino)methyl)-6-((4-(methylsulfonyl)benzyl)oxy)benzo[d]oxazol-2-yl)-2,2′-dimethyl-[1,1′-biphenyl]-3-yl)benzo[d]oxazol-5-yl)methyl)-L-proline]
0.1 to 5	Cc1c(-c2nc3cc(CN4CCC[C@H]4C(=O)O)c(OC(F)F)cc3o2)cccc1-c1cccc(-c2nc3cc(CN4CC[C@H](C)C4)cc(C#N)c3o2)c1C [Example 130, ((2-(3′-(7-cyano-5-(((S)-3-methylpyrrolidin-1-yl)methyl)benzo[d]oxazol-2-yl)-2,2′-dimethyl-[1,1′-biphenyl]-3-yl)-6-(difluoromethoxy)benzo[d]oxazol-5-yl)methyl)-L-proline]
0.1 to 5	Cc1c(-c2nc3cc(CN4CCC[C@H]4C(=O)O)c(OC(F)F)cc3o2)cccc1-c1cccc(-c2nc3cc(CNC4(C)COC4)cc(C#N)c3o2)c1C [Example 133, ((2-(3′-(7-cyano-5-(((3-methyloxetan-3-yl)amino)methyl)benzo[d]oxazol-2-yl)-2,2′-dimethyl-[1,1′-biphenyl]-3-yl)-6-(difluoromethoxy)benzo[d]oxazol-5-yl)methyl)-L-proline]
0.1 to 5	Cc1c(-c2nc3cc(CN4CCC[C@H]4C(=O)O)c(OC(F)F)cc3o2)cccc1-c1cccc(-c2nc3cc(CN4CC(N(C)C)C4)cc(C#N)c3o2)c1C [Example 134, ((2-(3′-(7-cyano-5-((3-(dimethylamino)azetidin-1-yl)methyl)benzo[d]oxazol-2-yl)-2,2′-dimethyl-[1,1′-biphenyl]-3-yl)-6-(difluoromethoxy)benzo[d]oxazol-5-yl)methyl)-L-proline]
0.1 to 5	Cc1c(-c2nc3cc(CN4CCC[C@H]4C(=O)O)c(OC(F)F)cc3o2)cccc1-c1cccc(-c2nc3cc(CN4CCCCC4CCO)cc(C#N)c3o2)c1C (stereo partly drawn) [Example 135, ((2-(3′-(7-cyano-5-((2-(2-hydroxyethyl)piperidin-1-yl)methyl)benzo[d]oxazol-2-yl)-2,2′-dimethyl-[1,1′-biphenyl]-3-yl)-6-(difluoromethoxy)benzo[d]oxazol-5-yl)methyl)-L-proline]
0.1 to 5	Cc1c(-c2nc3cc(CN4CCC[C@H]4C(=O)O)c(OC(F)F)cc3o2)cccc1-c1cccc(-c2nc3cc(CN4CC(CO)C4)cc(C#N)c3o2)c1C [Example 137, ((2-(3′-(7-cyano-5-((3-(hydroxymethyl)azetidin-1-yl)methyl)benzo[d]oxazol-2-yl)-2,2′-dimethyl-[1,1′-biphenyl]-3-yl)-6-(difluoromethoxy)benzo[d]oxazol-5-yl)methyl)-L-proline]
0.1 to 5	Cc1c(-c2nc3cc(CN4CCC[C@H]4C(=O)O)c(OC(F)F)cc3o2)cccc1-c1cccc(-c2nc3cc(CNCC(C)(C)O)cc(C#N)c3o2)c1C [Example 138, ((2-(3′-(7-cyano-5-(((2-hydroxy-2-methylpropyl)amino)methyl)benzo[d]oxazol-2-yl)-2,2′-dimethyl-[1,1′-biphenyl]-3-yl)-6-(difluoromethoxy)benzo[d]oxazol-5-yl)methyl)-L-proline]
0.1 to 5	Cc1c(-c2nc3cc(CN4CCC[C@H]4C(=O)O)c(OC(F)F)cc3o2)cccc1-c1cccc(-c2nc3cc(CNCC4CCC(=O)N4)cc(C#N)c3o2)c1C (stereo partly drawn) [Example 139, ((2-(3′-(7-cyano-5-((((5-oxopyrrolidin-2-yl)methyl)amino)methyl)benzo[d]oxazol-2-yl)-2,2′-dimethyl-[1,1′-biphenyl]-3-yl)-6-(difluoromethoxy)benzo[d]oxazol-5-yl)methyl)-L-proline]
0.1 to 5	Cc1c(-c2nc3cc(CN4CCC[C@@H]4C(=O)O)c(OC(F)F)cc3o2)cccc1-c1cccc(-c2nc3cc(CN4CC(C)(C)C4)cc(C#N)c3o2)c1C [Example 140, ((2-(3′-(7-cyano-5-((3,3-dimethylazetidin-1-yl)methyl)benzo[d]oxazol-2-yl)-2,2′-dimethyl-[1,1′-biphenyl]-3-yl)-6-(difluoromethoxy)benzo[d]oxazol-5-yl)methyl)-D-proline]
0.1 to 5	CCN(CCO)Cc1cc(C#N)c2oc(-c3cccc(-c4cccc(-c5nc6cc(CN7CCC[C@H]7C(=O)O)c(OC(F)F)cc6o5)c4C)c3C)nc2c1 [Example 141, ((2-(3′-(7-cyano-5-((ethyl(2-hydroxyethyl)amino)methyl)benzo[d]oxazol-2-yl)-2,2′-dimethyl-[1,1′-biphenyl]-3-yl)-6-(difluoromethoxy)benzo[d]oxazol-5-yl)methyl)-L-proline]
0.1 to 5	Cc1c(-c2nc3cc(CN4CCC[C@@H]4C(=O)O)c(OC(F)F)cc3o2)cccc1-c1cccc(-c2nc3cc(CN4CCC(C#N)C4)cc(C#N)c3o2)c1C (stereo partly drawn) [Example 143, ((2-(3′-(7-cyano-5-((3-cyanopyrrolidin-1-yl)methyl)benzo[d]oxazol-2-yl)-2,2′-dimethyl-[1,1′-biphenyl]-3-yl)-6-(difluoromethoxy)benzo[d]oxazol-5-yl)methyl)-D-proline]
0.1 to 5	Cc1c(-c2nc3cc(CN4CCC[C@@H]4C(=O)O)c(OC(F)F)cc3o2)cccc1-c1cccc(-c2nc3cc(CN4CCCC4)cc(C#N)c3o2)c1C [Example 145, ((2-(3′-(7-cyano-5-(pyrrolidin-1-ylmethyl)benzo[d]oxazol-2-yl)-2,2′-dimethyl-[1,1′-biphenyl]-3-yl)-6-(difluoromethoxy)benzo[d]oxazol-5-yl)methyl)-D-proline]
0.1 to 5	Cc1c(-c2nc3cc(CN4CCC[C@H]4C(=O)O)c(OC(F)F)cc3o2)cccc1-c1cccc(-c2nc3cc(CN4CC5(CNC(=O)C5)C4)cc(C#N)c3o2)c1C [Example 146, ((2-(3′-(7-cyano-5-((7-oxo-2,6-diazaspiro[3.4]octan-2-yl)methyl)benzo[d]oxazol-2-yl)-2,2′-dimethyl-[1,1′-biphenyl]-3-yl)-6-(difluoromethoxy)benzo[d]oxazol-5-yl)methyl)-L-proline]
0.1 to 5	Cc1c(-c2nc3cc(CN4CCC[C@H]4C(=O)O)c(OC(F)F)cc3o2)cccc1-c1cccc(-c2nc3cc(CN(C(C)CO)C(C)CO)cc(C#N)c3o2)c1C (stereo partly drawn) [Example 147, ((2-(3′-(5-((bis(1-hydroxypropan-2-yl)amino)methyl)-7-cyanobenzo[d]oxazol-2-yl)-2,2′-dimethyl-[1,1′-biphenyl]-3-yl)-6-(difluoromethoxy)benzo[d]oxazol-5-yl)methyl)-L-proline]
5 to 50	Cc1c(-c2nc3cc(CN4CCC[C@H]4C(=O)O)c(OC(F)F)cc3o2)cccc1-c1cccc(-c2nc3cc(CN4CC(N5CCOCC5)C4)cc(C#N)c3o2)c1C [Example 148, ((2-(3′-(7-cyano-5-((3-morpholinoazetidin-1-yl)methyl)benzo[d]oxazol-2-yl)-2,2′-dimethyl-[1,1′-biphenyl]-3-yl)-6-(difluoromethoxy)benzo[d]oxazol-5-yl)methyl)-L-proline]
0.1 to 5	Cc1c(-c2nc3cc(CN4CCC[C@H]4C(=O)O)c(OC(F)F)cc3o2)cccc1-c1cccc(-c2nc3cc(CN4CC(N(C)C5COC5)C4)cc(C#N)c3o2)c1C [Example 149, ((2-(3′-(7-cyano-5-((3-(methyl(oxetan-3-yl)amino)azetidin-1-yl)methyl)benzo[d]oxazol-2-yl)-2,2′-dimethyl-[1,1′-biphenyl]-3-yl)-6-(difluoromethoxy)benzo[d]oxazol-5-yl)methyl)-L-proline]
0.1 to 5	Cc1c(-c2nc3cc(CN4CCC[C@H]4C(=O)O)c(OC(F)F)cc3o2)cccc1-c1cccc(-c2nc3cc(CN4CC(N5CC(C)(O)C5)C4)cc(C#N)c3o2)c1C [Example 150, ((2-(3′-(7-cyano-5-((3-hydroxy-3-methyl-[1,3′-biazetidin]-1′-yl)methyl)benzo[d]oxazol-2-yl)-2,2′-dimethyl-[1,1′-biphenyl]-3-yl)-6-(difluoromethoxy)benzo[d]oxazol-5-yl)methyl)-L-proline]
0.1 to 5	Cc1c(-c2nc3cc(CN4CCC[C@H]4C(=O)O)c(OC(F)F)cc3o2)cccc1-c1cccc(-c2nc3cc(CN4CC5(CCC(=O)N5)C4)cc(C#N)c3o2)c1C [Example 151, ((2-(3′-(7-cyano-5-((6-oxo-2,5-diazaspiro[3.4]octan-2-yl)methyl)benzo [d]oxazol-2-yl)-2,2′-dimethyl-[1,1′-biphenyl]-3-yl)-6-(difluoromethoxy)benzo[d]oxazol-5-yl)methyl)-L-proline]
